Data on four compounds can be found in patent publication US20080187556A1 (priority 2005, published 2008).

In brackets after ≈: the same amount, converted by molar mass. Ends that are not written are not given here.

For one assay, the system named is H22 hepatic carcinoma. The arrangement: species or system mice. Conditions: mouse, in vivo.
For a further assay, the system named is mononuclear phagocytes. Set-up: species or system mice. To be noted: mouse, in vivo.
Another assay relates to S180 sarcoma. Set-up: species or system mice. Conditions: mouse, in vivo.
The next assay concerns Tca83. Description: cells. Format: cell-based. To be noted: Homo sapiens.
Another assay relates to MCF-7. Briefly: cells. It counts as cell-based. Conditions: Homo sapiens, MCF7.
In the next assay the test system is HeLa. Briefly: cells. Conditions: Homo sapiens. It counts as cell-based.
A further assay relates to HELF. Briefly: cells. Conditions: Homo sapiens. Format: cell-based.
In another assay the test system is Hep-2. Description: cells. It counts as cell-based. Conditions: Homo sapiens.
A further assay concerns A549. Briefly: cells. To be noted: Homo sapiens. It counts as cell-based.
Another assay deals with HCT-8. Briefly: cells. It counts as cell-based. To be noted: Homo sapiens.
The test system of another assay is A431. Description: cells. Format: cell-based. To be noted: Homo sapiens, A-431.
For the next assay, the system named is PC-3M. Description: cells. It counts as cell-based. Conditions: Homo sapiens.
In another assay the test system is Ketr-3. Description: cells. It counts as cell-based. To be noted: Homo sapiens, KETR3.
Another assay deals with CaEs-17. Description: cells. Format: cell-based. To be noted: Homo sapiens, CaEs17.
The subject of a further assay is Bel7402. Briefly: cells. Format: cell-based. Conditions: Homo sapiens, Bel-7402.
In the next assay the test system is KB. Description: cells. It counts as cell-based. Conditions: Homo sapiens.
Another assay relates to EJ. Briefly: cells. It counts as cell-based. To be noted: Homo sapiens.
Another assay relates to BGC-823. Description: cells. Format: cell-based. Conditions: Homo sapiens.
Details of assay [1]: species or system mice. Conditions: mouse, in vivo.

On to `O=P1(N(CCCl)CCCl)NCCCO1` (stereo not shown) [Cyclophosphamide], for which the “pathological picture of tumor tissue” value in the assay on H22 hepatic carcinoma is “necrotic and degenerated tissue scattered”. In the assay on mononuclear phagocytes, the “Index of phagocytosis, K” value is 0.0744 ± 0.0081 and the “Phagocytosis activity, α” value turned out to be 4.4614 ± 0.2413. Also, the “pathological picture of tumor tissue” value in the assay with S180 sarcoma was “necrotic and degenerated tissue scattered”.
The term IC50 denotes the concentration needed to halve the response being measured. For the compound `O=c1[nH]cc(F)c(=O)[nH]1` [Fluorouracil], the IC50 with Tca83 was found to be 0.924 ± 0.0435 µg/mL (≈ 7.1 µM); in the assay on MCF-7 it was 0.646 ± 0.0437 µg/mL (≈ 4.97 µM); with HeLa, 0.613 ± 0.05 µg/mL (≈ 4.71 µM); with HELF it was 0.087 ± 0.004 µg/mL (≈ 0.669 µM); with Hep-2 it was 4.88 ± 2.22 µg/mL (≈ 37.5 µM); in the assay with A549, 0.425 ± 0.034 µg/mL (≈ 3.27 µM). Moreover, the half-maximal inhibitory concentration (IC50) in the assay on HCT-8 worked out at 0.605 ± 0.0278 µg/mL (≈ 4.65 µM); in the assay on A431, 0.174 ± 0.0447 µg/mL (≈ 1.34 µM); in the assay on PC-3M, 1.49 ± 1.07 µg/mL (≈ 11.4 µM); with Ketr-3, 0.634 ± 0.0147 µg/mL (≈ 4.87 µM); in the assay on CaEs-17, 0.757 ± 0.0254 µg/mL (≈ 5.82 µM); in the assay on Bel7402, 0.718 ± 0.0067 µg/mL (≈ 5.52 µM). Also, the half-maximal inhibitory concentration (IC50) with KB stood at 0.66 ± 0.0085 µg/mL (≈ 5.07 µM); in the assay with EJ it was 3.69 ± 0.909 µg/mL (≈ 28.4 µM); in the assay with BGC-823, 0.632 ± 0.0572 µg/mL (≈ 4.86 µM).
As for RKDVY [thymopentin], the “pathological picture of tumor tissue” value in the assay on H22 hepatic carcinoma was “a little of tumor cell necrosis and degeneration”; in the assay with S180 sarcoma, “a few tumor cells were necrotic and degenerative”.
“Thymosin Alpha-1 (SDAAVDTSSEITTKDLKEKKEVVEEAEN; not fully specified (N-terminus); ends and bridges not checked; UniProt P06454 2-29, looked up) [biological drug, registration No. H20050339]”: in [1], the Elongation index is on record as 37.5% and the Swimming time came to 18.9 ± 2.98 min. In addition, in the assay with mononuclear phagocytes, the “Index of phagocytosis, K” value is given as 0.3473 ± 0.0130 and the “Phagocytosis activity, α” value turned out to be 7.9583 ± 0.5069.
